Test results reported in paper PMC11409218, “Metal(triphenylphosphine)-atovaquone Complexes: Synthesis, Antimalarial Activity, and Suppression of Heme Detoxification” (Inorganic Chemistry, 2024).

Key:
[1] = Cytotoxicity in mammalian cells (CellTiter-Glo), HepG2; assay type: cell-based; settings: HepG2 hepatocellular carcinoma cells; HepG2 human hepatocellular carcinoma line; 72 h drug incubation; mean of three experiments; read-out: mammalian cells CC50 (±SEM), HepG2
Description: (§1) Cell lines J774 and HepG2 were incubated with the drug for 72 h, the same time frame as employed to determine antimalarial activity. Cytotoxicity was evaluated in parallel with ATV as a representative parental drug, while doxorubicin was used as a standard cytotoxic drug. These experiments were also used to estimate the in vitro selectivity index (Table 2).
(§2) Doxorubicin chloridrate (Eurofarma, São Paulo, Brazil) was used as a positive control, while untreated cells were employed as negative controls. Bioluminescence readings were performed using a Filtermax F5Multi-Mode instrument (Molecular Devices, Sunnyvale, CA) using the CellTiter-Glo kit (Promega Corporation, Madison, USA). Three independent experiments were performed and CC50 values were calculated.

[2] = Cytotoxicity in mammalian cells (CellTiter-Glo), J774; assay type: cell-based; settings: mouse, J774 macrophage cells; J774 murine macrophage line; 72 h drug incubation; mean of three experiments; read-out: mammalian cells CC50 (±SEM), J774
Description: as §1, §2

[3] = Chemical stability in solution (UV–vis, NMR, molar conductivity); assay type: physicochemical; settings: for ΛM (DMSO) Day 1 / ΛM (DMSO) Day 2 / ΛM (DMSO) Day 3 / ΛM (DMSO) Day 7 / ΛM (DMSO) Day 15: molar conductivity in DMSO, stability; for stability by UV–vis in pure DMSO: primarily within 0–24 h
Description: Three distinct methodologies were used to investigate the in-solution stability of metal–ATV complexes 1–3, namely ultraviolet–visible (UV–vis) spectra, NMR, and molar conductivity. All experiments were performed in dimethyl sulfoxide (DMSO) and monitored for at least 72 h, a time frame which coincides with antimalarial drug treatment.
Furthermore, no significant changes in the ^1H NMR and ^31P{^1H} NMR spectra of the complexes were observed up to 72 h in comparison to freshly dissolved solution, denoted as time 0 h (Figures S20–S25). However, for the ^31P{^1H} NMR spectrum of the complex 3, it is observed an increasing intensity of the singlet at 28 ppm that can be attributed to oxidized PPh3, which may be leaving the coordination sphere, but this is relative low when compared with the signal of the complex at −1.76 ppm. Both molar conductivity and NMR data therefore indicate that the metal complexes remained intact in this condition. The observed […] in DMSO is likely related to the fact that the metal atoms are bonded to phosphine ligands, hindering any oxidation of the metal center.
As for the UV–vis analyses, these were used to assess the stability of metal–ATV complexes 1–3 in a solution of pure DMSO or DMSO mixed with aqueous media. To this end, three different conditions were employed in parallel experiments. […] The small change in absorbance observed can be attributed to dynamic equilibrium processes or structural reorganization of the metal complexes. These processes may include partial dissociation of ligands, reorientation of solvent molecules around the metal ion, or even conformational changes of the metal complexes. […] Highlighting that these conditions are the most similar to those employed in the determination of biological activity. Based on this, we concluded that in mixed aqueous/organic media, ATV and complexes 1–3 may undergo slight structural modifications, but no significant ligand exchange reactions occur, as previously observed in the stability studies by NMR.
For the stability studies by NMR spectroscopy, fresh solutions of the complexes in DMSO-d6 with concentrations of 22–25 mM were used. In the studies by UV–vis spectroscopy, three experimental conditions were employed: a) only DMSO, b) 90% DMSO/10% H2O, and c) 90% DMSO/10% RPMI 1640 (Roswell Park Memorial Institute) medium, with concentrations of the complexes 1-3 in 0.28–0.35 μM, 0.25–0.28 μM and 0.32–0.38 μM, respectively. Fresh solutions of the complexes dissolved in DMSO were always used and subsequently diluted with water or RPMI medium.

[4] = test system: 3D7 strain of P. falciparum; experiment: Coincubation of ATV with metal precursors, parasite growth inhibition (Figure 3C); assay type: cell-based, Plasmodium falciparum; settings: ATV 1.0 nM, [Au(PPh3)Cl] and [Cu(PPh3)2NO3] at 1000 nM
Description: (§3) Figure 3 (A) Antiplasmodial activity of the compounds against the 3D7 strain of P. falciparum. (B) Cytotoxicity against the J774 cell line. In both cases, the compounds were diluted in cell culture and incubated for 0 or 72 h before use in the assays. […] In panels A and C, parasite viability was measured by HRP2 ELISA-based assay, and IC50 values were calculated. In panel B, cell viability was measured by CellTiter-Glo, and IC50 values were calculated. In panels A and B, the values are the mean and standard deviation of two independent experiments, using each concentration of compounds in duplicate. In panel C, the values are the mean and standard deviation of one experiment, using each concentration of compounds in quadruplicate. *p < 0.05; indicating significant difference by Student’s t test.
After ascertaining the existence of an association between the reactivity of the metal complexes and their pharmacological activity, we decided to evaluate whether they could be generated in situ upon coincubation of ATV and the respective metal precursors in the cell culture medium. In this set of experiments, ATV was added at 1.0 nM, while the metal precursors of gold(I) [Au(PPh3)Cl] and copper(I) [Cu(PPh3)2NO3] were added at 1000 nM (Figure 3C).

[5] = test system: J774 cells; experiment: Cytotoxicity in mammalian cells (CellTiter-Glo), J774; assay type: cell-based; settings: J774 murine macrophage line; 72 h drug incubation; mean of three experiments; read-out: mammalian cells CC50 (±SEM), J774
Description: as §1, §2

[6] = test system: J774 cell line; experiment: Cytotoxicity after preincubation of compounds in cell culture medium (Figure 3B); assay type: cell-based, murine; settings: J774 cells; compound preincubated 0 or 72 h in culture medium
Description: as §3
To further shed light on this, we performed the same experiment described above but assessing cytotoxicity in […] cells (Figure 3B). […] Our data also confirm not only drug stability but also the reactivity of the resulting products as important parameters.

[7] = Solubility in solvents; assay type: physicochemical; settings: for solubility in common organic solvents: dichloromethane, chloroform, dimethyl sulfoxide, acetone
From the text: (see Experimental Section). The chemical and physical characterization of ATV and the metal–ATV complexes are presented in the Supporting Information (Figures S1–S16). […] We attributed this band to a metal-to-ligand charge transfer (MLCT metal →π ATV naphthoquinone)[37] (Figures S3, S26–S28).

[8] = test system: 3D7 strain of P. falciparum; experiment: Antiplasmodial activity after preincubation of compounds in cell culture medium (Figure 3A); assay type: cell-based, Plasmodium falciparum; settings: compound preincubated 0 or 72 h in culture medium
Description: To understand the reason for the difference in antiplasmodial potency between monodentate complex 2 and bidentate complexes 1 and 3, we incubated all three metal complexes in cell culture media for different times before assessing their antiplasmodial activity (Figure 3A). The percentage of parasite growth inhibition in samples of cell culture medium containing complex 2 was reduced after 72 h incubation in comparison to freshly prepared samples (0 h). […] We interpret the loss in antiplasmodial activity for complex 2 as potentially resulting from ligand exchange reactions occurring in the culture medium before drug internalization into parasite cells. This denotes a higher lability for the monodentate complex 2 than for the bidentate complexes 1 and 3.
as §3

Row | Compound | CC50 at 72 h [1] [µM] | CC50 at 72 h [2] [µM] | ΛM (DMSO) Day 1 [3] [Ohm-1cm2mol-1] | ΛM (DMSO) Day 2 [3] [Ohm-1cm2mol-1] | ΛM (DMSO) Day 3 [3] [Ohm-1cm2mol-1] | ΛM (DMSO) Day 7 [3] [Ohm-1cm2mol-1] | ΛM (DMSO) Day 15 [3] [Ohm-1cm2mol-1] | parasite growth inhibition of ATV in the absence or presence of metal precursors [4] | CC50 [5] [µM] | stability by UV–vis in 90% DMSO mixed with 10% water ([3]; 90% DMSO/10% H2O) | stability by UV–vis in pure DMSO [3] | cell viability (cytotoxicity) after 72 h incubation in cell culture medium versus freshly prepared samples (0 h) [6] | solubility in common organic solvents [7] | solubility in methanol, ethanol, and acetonitrile [7] | parasite growth inhibition after 72 h incubation in cell culture medium versus freshly prepared samples (0 h) [8]
1 | O=C1C(O)=C([C@H]2CC[C@H](c3ccc(Cl)cc3)CC2)C(=O)c2ccccc21 [ATV, atovaquone] | 32.4 ± 4.8 | 19.8 ± 1.6 | 0.93 | 1.07 | 1.23 | 1.68 | 2.04 | did not observe a difference |  |  |  |  |  |  | 
2 | O=C1C([O][Cu]([PH](c2ccccc2)(c2ccccc2)c2ccccc2)[PH](c2ccccc2)(c2ccccc2)c2ccccc2)=C([C@H]2CC[C@H](c3ccc(Cl)cc3)CC2)C(=O)c2ccccc21 [Complex 3, [Cu(ATV)(PPh3)2]] |  |  | 3.71 | 3.80 | 3.47 | 3.14 | 3.05 |  | 36.1 ± 3.9 | major change in the spectra | modifications were observed in the electronic spectra | remained unchanged | had enough solubility | partially soluble | remained unchanged
3 | [Ag(ATV)(PPh3)2] [Complex 1] |  |  | 12.81 | 13.90 | 16.14 | 13.70 | 12.17 |  | 9.5 ± 2.2 |  |  | became less cytotoxic | had enough solubility | partially soluble | remained unchanged
4 | [Au(ATV)(PPh3)]·2H2O [Complex 2] |  |  | 12.69 | 14.51 | 12.53 | 12.41 | 11.84 |  | 10.8 ± 3.4 |  | modifications were observed in the electronic spectra | remained unchanged | had enough solubility | partially soluble | reduced
